Laboratory results taken from paper PMC9523135, “Apamin structure and pharmacology revisited” (Frontiers in Pharmacology, 2022).
In brackets after ≈: the same amount, converted by molar mass. Where two headings read alike, the source gives them in different places.

What was measured:
E. faecalis = assay: Antimicrobial assay, microtitre broth dilution, E. faecalis; assay type: cell-based, Enterococcus faecalis ATCC 29212; conditions: lowest concentration causing 100% growth inhibition; 24 h, 37°C; n = 5
Procedure: Apamin was tested against Gram-positive (Enterococcus faecalis ATCC 29212, Staphylococcus aureus subsp. aureus ATCC 29213) and Gram-negative bacteria (Escherichia coli ATCC 25922, Pseudomonas aeruginosa ATCC 27853) following the previously described modification of the microtitre broth dilution method ([Vassilevski et al., 2010]). Those bacterial strains were also subjected to the treatment by melittin in the same concentration range to serve as a positive control.
Briefly, bacteria were cultured in a low-salt LB medium. The two-fold microtitre broth dilution assay was carried out in 96-well sterile plates in a final volume of 100 μL. Mid-exponential-phase cultures were diluted to a final concentration of 10^5 colony-forming units·ml^−1. Pure peptides were dissolved in 10 μL of water and added to 90 μL of the bacterial dilution. The samples, a non-treated control and a sterility control were tested in five independent experiments (n = 5). The microtitre plates were incubated for 24 h at 37°C, and growth inhibition was determined by measuring the absorbance at 620 nm. Minimum inhibitory concentration (MIC) is expressed as the lowest concentration of peptide that caused 100% bacterial growth inhibition.

KCa3.1 = assay: Patch-clamp, HEK293 cells expressing hKCa3.1 (IK); assay type: cell-based, human; conditions: 1 µM TRAM-34
Procedure: (§1) HEK293 cells stably expressing hKCa1.1 (BK, GenBank accession number: NM_002247), hKCa2.1 (SK1, NM_002248), and hKCa3.1 (IK, AH009923) or COS7 cells stably expressing hKCa2.3 (SK3, AJ251016) were generated and cultured as previously described ([Sankaranarayanan et al., 2009]). HEK293 cells stably expressing rKCa2.2 (SK2, NM_019314) were a gift from Dr. Mio Zhang (Chapman University, Irvine).
(§2) All experiments were conducted with an EPC-10 amplifier (HEKA) in the whole-cell configuration with a holding potential of –80 mV. Pipette resistances averaged around 2.5 MΩ. […] Free Ca^2+ concentrations were calculated with MaxChelator (developed by Chris Patton, Stanford University) assuming a temperature of 25°C, pH 7.2, and ionic strength of 160 mM. […] Please note that the provided concentrations are what was weighed in to achieve an initially hyperosmolar solution that was diluted with water to 310 mOsm for the internal and 315 mOsm for the external solution as measured with a VAPRO Vapor pressure osmometer (Wescor). […]
(§3) KCa2 and KCa3.1 currents were elicited by 200-ms voltage ramps from –120 to 40 mV applied every 10 s, and the fold decrease of slope conductance at –80 mV was taken as a measure of apamin-induced channel inhibition. […] KCa1.1 channel activity was recorded with a step protocol, in which cells were stepped to +40 mV for 100 ms at 30-s intervals. […]

KV11.1 = assay: Two-electrode voltage-clamp, X. laevis oocytes, hKV11.1 (hERG); assay type: cell-based, human; parameters: key to effect on current: N.E.: no effect at 5 μM concentration; conditions: 5 μM apamin, n = 5
Procedure: Linearized plasmids bearing the ion channel genes were transcribed using the mMESSAGE mMACHINE SP6 or T7 transcription kits (Ambion) to prepare the respective cRNA. The harvesting of stage V–VI oocytes from anaesthetized female X. laevis frogs was described previously ([Liman et al., 1992]; [Peigneur et al., 2021]). Oocytes were injected with 50 nL of cRNA at a concentration of 1 ng nl^−1 using a microinjector (Drummond Scientific). The oocytes were incubated at 16°C in ND96 solution containing (in mM): NaCl, 96; KCl, 2; CaCl2, 1.8; MgCl2, 2; and HEPES, 5 (pH 7.4), supplemented with 50 mg l^−1 gentamicin sulfate.
Recordings were performed at room temperature (18°C–22°C) using a Geneclamp 500 amplifier (Molecular Devices) controlled by a pClamp data acquisition system (Axon Instruments). Whole-cell currents from oocytes were recorded 1–4 days after cRNA injection. Bath solution composition was ND96, or HK containing (in mM): NaCl, 2; KCl, 96; CaCl2, 1.8; MgCl2, 2; and HEPES, 5 (pH 7.4). Voltage and current electrodes were filled with 3 M KCl. […]
Currents were evoked by a 100 ms (NaV) or 500 ms (KV) depolarization to the voltage corresponding to the maximal activation of the channels in control conditions from a holding potential of −90 mV. […] TRP currents were measured in ND96 at −90 mV during 400 s. […] Peak current amplitude was measured prior to and following the application of the peptide. […]

mice = conditions: cited from earlier work
Source text: The symptoms are apparently of central origin because the toxicity increases by a factor of 1,000–10,000 and the progression of poisoning is faster in case of i.c.v. injection, but the clinical picture stays the same ([Habermann, 1977], [Habermann, 1984]).

KCa2.1 = biological target: T1, KCa2.1 (Homo sapiens, UniProt Q92952); assay: Patch-clamp, HEK293 cells expressing hKCa2.1 (SK1); assay type: cell-based; conditions: voltage ramps –120 to 40 mV, slope conductance at –80 mV, 1 μM free Ca^2+ internal; Hill fit, n ≥ 5; 95% CI 3.3–5.0 nM
T1 construct: expressed in transfected cells
Procedure: as §1, §2, §3

KCa2 = conditions: Kalium database; ref Kuzmenkov et al., 2016; Tabakmakher et al., 2019; cited from earlier work
Source text: (§4) According to the Kalium database (https://kaliumdb.org) ([Kuzmenkov et al., 2016]; [Tabakmakher et al., 2019]), six of these substances were identified in scorpion venom (AmP05, maurotoxin, Pi-1, scyllatoxin, tamapin, and Ts9). […] Intere ...

KCa2.2 = conditions: cited from earlier work
Source text: as §4

T1 sequence (Q92952 whole entry): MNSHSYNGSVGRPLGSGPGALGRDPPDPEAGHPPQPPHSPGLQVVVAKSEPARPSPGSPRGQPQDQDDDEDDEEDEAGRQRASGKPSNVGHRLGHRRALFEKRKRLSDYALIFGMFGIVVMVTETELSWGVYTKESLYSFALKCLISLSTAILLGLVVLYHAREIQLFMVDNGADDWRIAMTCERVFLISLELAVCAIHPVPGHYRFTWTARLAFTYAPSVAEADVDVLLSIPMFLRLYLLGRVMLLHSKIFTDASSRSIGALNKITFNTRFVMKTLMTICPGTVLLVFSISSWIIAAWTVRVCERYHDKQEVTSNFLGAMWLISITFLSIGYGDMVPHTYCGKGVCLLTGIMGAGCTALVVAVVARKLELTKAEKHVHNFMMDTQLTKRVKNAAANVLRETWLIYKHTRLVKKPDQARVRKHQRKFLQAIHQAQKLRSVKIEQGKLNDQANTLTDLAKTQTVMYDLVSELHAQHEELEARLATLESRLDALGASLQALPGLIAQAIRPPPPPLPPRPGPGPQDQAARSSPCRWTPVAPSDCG

`CC[C@H](C)[C@H](NC(=O)CN)C(=O)NCC(=O)N[C@@H](C)C(=O)N[C@H](C(=O)N[C@@H](CC(C)C)C(=O)N[C@@H](CCCCN)C(=O)N[C@H](C(=O)N[C@@H](CC(C)C)C(=O)N[C@H](C(=O)N[C@H](C(=O)NCC(=O)N[C@@H](CC(C)C)C(=O)N1CCC[C@H]1C(=O)N[C@@H](C)C(=O)N[C@@H](CC(C)C)C(=O)N[C@H](C(=O)N[C@@H](CO)C(=O)N[C@@H](Cc1c[nH]c2ccccc12)C(=O)N[C@H](C(=O)N[C@@H](CCCCN)C(=O)N[C@@H](CCCNC(=N)N)C(=O)N[C@@H](CCCCN)C(=O)N[C@@H](CCCNC(=N)N)C(=O)N[C@@H](CCC(N)=O)C(=O)N[C@@H](CCC(N)=O)C(N)=O)[C@@H](C)CC)[C@@H](C)CC)[C@@H](C)O)[C@@H](C)O)C(C)C)C(C)C` [Melittin] gave an MIC (E. faecalis) of 0.5 µM (≈ 1.42 µg/mL).
For `Clc1ccccc1C(c1ccccc1)(c1ccccc1)n1cccn1` [TRAM-34], the “block of KCa3.1 currents” value (KCa3.1) was “potently blocked”.
In the case of `CC(C)C[C@@H]1NC(=O)[C@H](C)NC(=O)[C@H]([C@@H](C)O)NC(=O)[C@H](CCC(=O)O)NC(=O)[C@@H]2CCCN2C(=O)[C@H](C)NC(=O)[C@H](CCCCN)NC(=O)[C@@H]2CSSC[C@@H](C(=O)N[C@@H](CCC(N)=O)C(=O)N[C@@H](CCC(N)=O)C(=O)N[C@@H](Cc3cnc[nH]3)C(N)=O)NC(=O)[C@H](CCCNC(=N)N)NC(=O)[C@H](CCCNC(=N)N)NC(=O)[C@H](C)NC(=O)[C@H](CSSC[C@H](N)C(=O)N[C@@H](CC(N)=O)C(=O)N2)NC1=O` [apamin], the “current ratio (Iapamin/Icontrol)” value (KV11.1; mean ± SD) is given as 1.07 ± 0.06, the effect on current (KV11.1) is given as “N.E” and the “factor of toxicity increase on i.c.v. injection” value (mice; i.c.v. compared with i.v., ref Habermann, 1977, 1984) is given as 1,000–10,000. For the same molecule, the LD50 (mice; i.v., ref Habermann and Reiz, 1965, 1972) was “≈ 4 mg kg^−1”, the “symptoms when injected into mice” value (mice; ref Habermann and Reiz, 1965, 1972) was “muscle spasms, jerks, and convulsions” and the IC50 (KCa2.1) was 4.1 nM.
For “maurotoxin (VSCTGSKDCYAPCRKQTGCPNAKCINKSCKCYGC; UniProt P80719 1-34, looked up)”, the “affinity on KCa2” value (KCa2) is listed as “high (nanomolar) affinity”.
In the case of “scyllatoxin: scorpion toxin from Leiurus quinquestriatus hebraeus (AFCNLRMCQLSCRSLGLLGKCIGDKCECVKH; UniProt P16341 1-31, looked up)”, the “affinity on KCa2” value (KCa2) is listed as “high (nanomolar) affinity” and the “IC50 range in words” value (KCa2.2; ref Shakkottai et al., 2001) is listed as “subnanomolar range”.
For “tamapin: scorpion toxin from Mesobuthus tamulus (AFCNLRRCELSCRSLGLLGKCIGEECKCVPY; UniProt P59869 1-31, looked up)”, the “affinity on KCa2” value (KCa2) is listed as “high (nanomolar) affinity” and the “IC50 range in words” value (KCa2.2; ref Pedarzani et al., 2002) is listed as “subnanomolar range”.
